Data as given in PMC3722118, “Hellebrin and its aglycone form hellebrigenin display similar in vitro growth inhibitory effects in cancer cells and binding profiles to the alpha subunits of the Na^+/K^+-ATPase” (Molecular Cancer, 2013).

Assays:
A549 NSCLC cells = experiment: MTT colorimetric in vitro growth inhibition assay; assay type: cell-based, human; details: Homo sapiens, A549, 72 h; three days of culture; * three independent experiments, ** one experiment, six replicates; read-out: IC50 (nM) A549
Description: (§1) The histological types and origins of the eight human cancer cell lines that were used for the MTT colorimetric assay are detailed in the legend of Table 1. Two mouse cancer cell lines were also used, the CT26.WT colon cancer cell line (ATCC code CRL-2638) and the B16F10 melanoma cell line (ATCC code CRL-6475). Both cell lines were obtained from the American Type Culture Collection (ATCC, Manassas, VA). A control cell line (human NHDF fibroblasts) was obtained from PromoCell (code c-12300; Heidelberg, Germany). The cell lines detailed in Figure 2A are a generous gift from the National Cancer Institute (NCI, Bethesda, USA) to Steven Karlish’s lab.
(§2) The cancer cells were cultured in RPMI (Lonza, Verviers, Belgium) medium supplemented with 10% heat-inactivated fetal calf serum (Lonza). All culture media were supplemented with 4 mM glutamine, 100 μg/mL gentamicin, 200 U/mL penicillin and 200 μg/mL streptomycin (Lonza). The NHDF fibroblasts were cultured in Lonza medium cc3132 KT FGM-2 BulletKit.
(§3) The overall growth level of the human cancer cell lines was determined using a colorimetric MTT (3-(4,5-dimethylthiazol-2yl)-2,5-diphenyltetrazolium bromide, Sigma, Belgium) assay as detailed previously. Briefly, this test measures the number of metabolically active (thus living) cells that are able to transform the yellow MTT into the blue formazan dye via a mitochondrial reduction involving succinate dehydrogenase. The amount of formazan obtained at the end of the experiment (measured by spectrophotometry) is directly proportional to the number of living cells. The determination of the optical density in the control compared to the treated cells therefore enables quantitative measurements of the effects of compounds on the growth of normal as well as cancer cells in vitro.
(§4) Each experimental condition was performed in six replicates.

HT-29 colon cancer cells [1] = experiment: MTT colorimetric in vitro growth inhibition assay; assay type: cell-based, human; details: Homo sapiens, HT-29, 72 h; three days of culture; * three independent experiments, ** one experiment, six replicates; read-out: IC50 (nM) HT-29
Description: as §1, §2, §3, §4

Hs683 glioma cells = experiment: MTT colorimetric in vitro growth inhibition assay; assay type: cell-based, human; details: Homo sapiens, Hs 683, 72 h; three days of culture; * three independent experiments, ** one experiment, six replicates; read-out: IC50 (nM) Hs683
Description: as §1, §2, §3, §4

[2] = tested on: MCF-7 breast cancer cells; experiment: MTT colorimetric in vitro growth inhibition assay; assay type: cell-based, human; details: Homo sapiens, MCF7, 72 h; three days of culture; * three independent experiments, ** one experiment, six replicates; read-out: IC50 (nM) MCF-7
Description: as §1, §2, §3, §4

[3] = tested on: PC-3 prostate cancer cells; experiment: MTT colorimetric in vitro growth inhibition assay; assay type: cell-based, human; details: Homo sapiens, 72 h; three days of culture; * three independent experiments, ** one experiment, six replicates; read-out: IC50 (nM) PC-3
Description: as §1, §2, §3, §4

SKMEL-28 melanoma cells = experiment: MTT colorimetric in vitro growth inhibition assay; assay type: cell-based, human; details: Homo sapiens, SK-MEL-28, 72 h; three days of culture; * three independent experiments, ** one experiment, six replicates; read-out: IC50 (nM) SKMEL-28
Description: as §1, §2, §3, §4

T98G glioma cells = experiment: MTT colorimetric in vitro growth inhibition assay; assay type: cell-based, human; details: Homo sapiens, T98G, 72 h; three days of culture; * three independent experiments, ** one experiment, six replicates; read-out: IC50 (nM) T98G
Description: as §1, §2, §3, §4

U373 glioma cells = experiment: MTT colorimetric in vitro growth inhibition assay; assay type: cell-based, human; details: Homo sapiens, U373 MG, 72 h; three days of culture; * three independent experiments, ** one experiment, six replicates; read-out: IC50 (nM) U373
Description: as §1, §2, §3, §4

[4] = tested on: human cancer cells (A549, U373, Hs683, T98G, MCF-7, SKMEL-28, PC-3, HT-29); experiment: MTT growth inhibition, mean over the eight human cancer cell lines; assay type: cell-based; details: 72 h; mean over eight human cancer cell lines, three days of culture; read-out: IC50 (nM) Mean ± SEM
Description: as §1, §2, §3, §4

HT-29 colon cancer cells [5] = experiment: O2 consumption rate (MitoXpress assay); assay type: cell-based, human; details: compounds at their IC50 (MTT), 24 h
Protocol: For enzymatic determination of lactate production, confluent tumor cells were incubated with 10 mM glucose for 24 hours. Culture medium was then filtered through centrifugation columns with a 10 KDa cutoff, and L-lactate concentrations were determined on an ISCUSflex analyzer (CMA Microdialysis AB, Solna, Sweden). O2 consumption was determined using the MitoXpress assay according to the manufacturer’s instructions (LuxCell Biosciences, Cork, Ireland). Briefly, after adding the oxygen probe to tumor cells cultured for 24 hours in 96-well microplates with or without the tested compounds, the wells were sealed with mineral oil, and respiration was evaluated using time-resolved fluorescent plate readers. Under these conditions, O2 depletion was translated into an increase in probe phosphorescence signal, and the slope of this signal was used to derive the O2 consumption rate.
Figure 6 Metabolic profiling of human HT29 colon cancer cells treated with cardiotonic steroids. A: Extracellular lactate concentrations and B: O2 consumption rates in HT29 cancer cells treated with the indicated compounds at their IC50in vitro growth inhibitory concentrations (see Table 1). The data (mean ± SEM from triplicates) are expressed in mM lactate accumulated in the extracellular medium after 24 hours and arbitrary units derived from time-resolved fluorescent signal.min^-1.

Rodent NaK = molecular target: Rodent NaK; parameters: method as in PMID 17706876; details: read-out: Ki for inhibition of activity, rodent NaK; cited from earlier work
human NaK = molecular target: human NaK; parameters: method as in PMID 17706876; details: read-out: Ki for inhibition of activity, human NaK; cited from earlier work

C[C@@H]1O[C@@H](O[C@H]2C[C@@H](O)[C@]3(CO)[C@H]4[C@H](O)C[C@]5(C)[C@@H](C6=CC(=O)OC6)CC[C@]5(O)[C@@H]4CC[C@]3(O)C2)[C@H](O)[C@H](O)[C@H]1O [Ouabain]
IC50 (A549 NSCLC cells): 37 ± 2 nM | IC50 (HT-29 colon cancer cells [1]): 84 ± 8 nM | IC50 (Hs683 glioma cells): 34 ± 3 nM | IC50 [2]: 100 ± 17 nM | IC50 [3]: 63 ± 10 nM | IC50 (SKMEL-28 melanoma cells): 83 ± 13 nM | IC50 (T98G glioma cells): 80 ± 3 nM | IC50 (U373 glioma cells): 78 ± 1 nM | IC50 [4]: 70 ± 8 nM | O2 consumption rate (cell respiration) (HT-29 colon cancer cells [5]): significantly reduced | Ki (Rodent NaK): 100000 nM | Ki (human NaK): 100 nM
